According to patent publication EP4151631A1, “HETEROCYCLIC COMPOUNDS FOR THE CONTROL OF INVERTEBRATE PESTS” (BASF SE, priority 2021, dated 2023):

Legend:
Spodoptera eridania = assay: Southern armyworm foliar spray test on lima bean plants; type: in vivo; details: 96 h, 2nd instar larvae on sprayed lima bean plants, 4 days after treatment, read-out: mortality in comparison with untreated controls
Procedure: The active compounds were formulated by a Tecan liquid handler in 100% cyclohexanone as a 10,000 ppm solution supplied in tubes. The 10,000 ppm solution was serially diluted in 100% cyclohexanone to make interim solutions. These served as stock solutions for which final dilutions were made by the Tecan in 50% acetone:50% water (v/v) into 10 or 20ml glass vials. A nonionic surfactant (Kinetic®) was included in the solution at a volume of 0.01% (v/v). The vials were then inserted into an automated electrostatic sprayer equipped with an atomizing nozzle for application to plants/insects. Lima bean plants (variety Sieva) were grown 2 plants to a pot and selected for treatment at the 1st true leaf stage. Test solutions were sprayed onto the foliage by an automated electrostatic plant sprayer equipped with an atomizing spray nozzle. The plants were dried in the sprayer fume hood and then removed from the sprayer. Each pot was placed into perforated plastic bags with a zip closure. Ten to 11 armyworm larvae were placed into the bag and the bags zipped closed. Test plants were maintained in a growth room at about 25°C and about 20-40% relative humidity for 4 days, avoiding direct exposure to fluorescent light (14:10 light:dark photoperiod) to prevent trapping of heat inside the bags. Mortality and reduced feeding were assessed 4 days after treatment, compared to untreated control plants.

Plutella xylostella = assay: Diamond back moth leaf-dip test on cabbage leaves; type: in vivo; details: 3rd instar larvae on dipped cabbage leaves, 72 hours after treatment, read-out: mortality in comparison with untreated controls
Procedure: The active compound was dissolved at the desired concentration in a mixture of 1:1 (vol:vol) distilled water: acetone. Surfactant (Kinetic HV) was added at a rate of 0.01% (vol/vol). The test solution was prepared on the day of use.
Leaves of cabbage were dipped in test solution and air-dried. Treated leaves were placed in petri dishes lined with moist filter paper and inoculated with ten 3rd instar larvae. Mortality was recorded 72 hours after treatment. Feeding damages were also recorded using a scale of 0-100%.

For `CC(NC(=O)c1cc(Br)cc(C(F)(F)F)c1)c1nccnc1-n1ncn(CC(F)(F)F)c1=O` (stereo not shown) [I-2, 3-bromo-N-[1-[3-[5-oxo-4-(2,2,2-trifluoroethyl)-1,2,4-triazol-1-yl]pyrazin-2-yl]ethyl]-5-(trifluoromethyl)benzamide], the mortality at 300 ppm (Spodoptera eridania) was ≥ 75% and the mortality at 300 ppm (Plutella xylostella) was ≥ 75%.
With `CC(NC(=O)c1cc(Br)cc(C(F)(F)F)c1)c1nccnc1-n1ncn(C)c1=O` (stereo not shown) [I-1, 3-bromo-N-[1-[3-(4-methyl-5-oxo-1,2,4-triazol-1-yl)pyrazin-2-yl]ethyl]-5-(trifluoromethyl)benzamide] the mortality at 300 ppm (Spodoptera eridania) was ≥ 75% and the mortality at 300 ppm (Plutella xylostella) was ≥ 75%.
